Like-named read-outs stand apart in the source and are kept apart here.
How the values were obtained:
Format in all cases: binding
EPHA7 = target: T1, EPHA7 (Homo sapiens, UniProt Q15375); conditions: for remaining binding at 10 µM: read-out: Percent control
T1 construct: purchased DiscoveRx KINOMEscan

EPHA8 = target: T2, EPHA8 (Homo sapiens, UniProt P29322); conditions: for remaining binding at 10 µM: read-out: Percent control
T2 construct: purchased DiscoveRx KINOMEscan
T2 sequence (P29322 28-1005): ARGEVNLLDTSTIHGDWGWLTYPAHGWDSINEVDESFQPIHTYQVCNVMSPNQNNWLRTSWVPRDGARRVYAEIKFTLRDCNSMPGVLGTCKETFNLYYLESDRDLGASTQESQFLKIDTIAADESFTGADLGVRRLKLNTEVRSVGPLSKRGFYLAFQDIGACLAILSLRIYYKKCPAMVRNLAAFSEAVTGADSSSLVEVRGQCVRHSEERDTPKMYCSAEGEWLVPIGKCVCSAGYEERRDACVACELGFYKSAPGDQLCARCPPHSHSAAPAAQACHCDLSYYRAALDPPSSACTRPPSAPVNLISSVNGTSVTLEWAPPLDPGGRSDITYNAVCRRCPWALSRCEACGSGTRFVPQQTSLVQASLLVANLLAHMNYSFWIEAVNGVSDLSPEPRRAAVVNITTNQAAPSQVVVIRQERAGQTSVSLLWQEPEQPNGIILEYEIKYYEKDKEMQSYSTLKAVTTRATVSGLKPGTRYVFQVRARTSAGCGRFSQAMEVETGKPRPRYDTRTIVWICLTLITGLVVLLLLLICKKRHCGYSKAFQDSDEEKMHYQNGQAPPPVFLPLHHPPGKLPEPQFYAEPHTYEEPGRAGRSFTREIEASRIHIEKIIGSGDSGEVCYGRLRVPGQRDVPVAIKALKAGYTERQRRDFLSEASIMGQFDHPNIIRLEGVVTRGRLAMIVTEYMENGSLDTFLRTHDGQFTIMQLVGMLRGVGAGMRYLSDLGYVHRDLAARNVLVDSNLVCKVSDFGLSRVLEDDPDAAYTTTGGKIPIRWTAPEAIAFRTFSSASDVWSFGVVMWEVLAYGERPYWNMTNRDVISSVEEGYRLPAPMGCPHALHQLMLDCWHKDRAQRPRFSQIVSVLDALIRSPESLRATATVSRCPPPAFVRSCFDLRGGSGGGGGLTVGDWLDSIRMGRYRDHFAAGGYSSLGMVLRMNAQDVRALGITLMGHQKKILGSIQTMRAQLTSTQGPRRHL

ERBB4 = target: T3, ERBB4 (Homo sapiens, UniProt Q15303); conditions: for remaining binding at 10 µM: read-out: Percent control
T3 construct: purchased DiscoveRx KINOMEscan
T3 sequence (Q15303 26-1308): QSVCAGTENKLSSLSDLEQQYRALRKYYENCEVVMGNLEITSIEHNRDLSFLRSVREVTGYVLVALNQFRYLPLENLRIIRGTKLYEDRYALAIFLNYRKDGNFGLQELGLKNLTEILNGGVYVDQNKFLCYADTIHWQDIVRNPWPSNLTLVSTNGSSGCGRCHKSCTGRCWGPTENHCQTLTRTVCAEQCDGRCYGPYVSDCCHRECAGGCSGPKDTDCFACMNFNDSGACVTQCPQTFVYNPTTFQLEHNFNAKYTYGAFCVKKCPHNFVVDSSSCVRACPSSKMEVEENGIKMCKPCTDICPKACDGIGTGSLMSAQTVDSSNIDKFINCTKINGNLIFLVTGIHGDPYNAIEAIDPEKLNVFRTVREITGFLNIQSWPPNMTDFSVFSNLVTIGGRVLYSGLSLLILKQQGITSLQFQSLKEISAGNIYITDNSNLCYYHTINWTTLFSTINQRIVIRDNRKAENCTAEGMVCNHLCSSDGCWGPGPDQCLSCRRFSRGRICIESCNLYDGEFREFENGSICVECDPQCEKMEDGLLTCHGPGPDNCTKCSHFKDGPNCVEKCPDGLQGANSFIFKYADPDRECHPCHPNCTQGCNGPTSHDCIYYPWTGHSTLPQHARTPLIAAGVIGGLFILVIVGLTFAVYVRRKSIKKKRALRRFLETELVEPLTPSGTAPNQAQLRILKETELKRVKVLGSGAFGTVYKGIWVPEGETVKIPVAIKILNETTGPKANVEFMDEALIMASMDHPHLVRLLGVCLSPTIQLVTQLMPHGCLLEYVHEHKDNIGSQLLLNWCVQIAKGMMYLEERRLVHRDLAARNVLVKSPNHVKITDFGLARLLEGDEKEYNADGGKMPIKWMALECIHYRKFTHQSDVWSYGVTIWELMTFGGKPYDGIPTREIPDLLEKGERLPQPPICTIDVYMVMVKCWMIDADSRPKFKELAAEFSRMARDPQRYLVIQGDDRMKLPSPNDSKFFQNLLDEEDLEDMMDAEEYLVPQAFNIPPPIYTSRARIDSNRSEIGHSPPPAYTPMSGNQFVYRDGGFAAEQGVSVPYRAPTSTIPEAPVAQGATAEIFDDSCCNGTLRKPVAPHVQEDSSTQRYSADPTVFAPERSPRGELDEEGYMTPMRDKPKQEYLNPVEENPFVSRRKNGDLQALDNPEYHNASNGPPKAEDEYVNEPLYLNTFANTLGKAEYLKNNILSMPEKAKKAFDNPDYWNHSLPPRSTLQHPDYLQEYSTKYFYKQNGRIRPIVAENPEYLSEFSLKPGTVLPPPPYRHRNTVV

FAK = target: T4, FAK (Homo sapiens, UniProt Q05397); conditions: for remaining binding at 10 µM: read-out: Percent control
T4 construct: purchased DiscoveRx KINOMEscan
T4 sequence (Q05397 whole entry): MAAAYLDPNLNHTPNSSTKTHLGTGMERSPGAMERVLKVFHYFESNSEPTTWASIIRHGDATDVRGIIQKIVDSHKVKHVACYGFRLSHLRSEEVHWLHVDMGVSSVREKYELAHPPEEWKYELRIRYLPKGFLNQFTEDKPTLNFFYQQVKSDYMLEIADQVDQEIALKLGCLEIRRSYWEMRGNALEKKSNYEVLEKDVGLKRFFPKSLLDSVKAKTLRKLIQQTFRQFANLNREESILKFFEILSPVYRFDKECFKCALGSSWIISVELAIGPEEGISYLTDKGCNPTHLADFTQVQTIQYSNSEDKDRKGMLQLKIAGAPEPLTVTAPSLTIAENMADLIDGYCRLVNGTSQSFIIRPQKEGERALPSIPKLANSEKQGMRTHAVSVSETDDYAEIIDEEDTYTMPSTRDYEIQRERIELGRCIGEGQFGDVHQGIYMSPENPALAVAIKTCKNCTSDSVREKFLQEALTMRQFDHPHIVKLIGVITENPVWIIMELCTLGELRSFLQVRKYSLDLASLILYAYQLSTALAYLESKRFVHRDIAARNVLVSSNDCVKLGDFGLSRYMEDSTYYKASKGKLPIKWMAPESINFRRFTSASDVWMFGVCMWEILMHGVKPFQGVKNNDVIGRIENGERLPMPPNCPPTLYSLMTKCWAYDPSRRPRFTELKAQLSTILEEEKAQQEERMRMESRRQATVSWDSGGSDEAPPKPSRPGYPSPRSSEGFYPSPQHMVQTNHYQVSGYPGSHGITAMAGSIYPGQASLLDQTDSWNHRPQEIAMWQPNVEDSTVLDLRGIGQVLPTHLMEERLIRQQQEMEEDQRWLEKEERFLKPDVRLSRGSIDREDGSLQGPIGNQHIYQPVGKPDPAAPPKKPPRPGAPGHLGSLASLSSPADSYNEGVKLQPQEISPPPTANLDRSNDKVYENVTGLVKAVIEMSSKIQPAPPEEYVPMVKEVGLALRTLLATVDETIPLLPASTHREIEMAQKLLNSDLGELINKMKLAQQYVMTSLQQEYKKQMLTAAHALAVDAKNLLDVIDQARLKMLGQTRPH

FGFR4 = target: T5, FGFR4 (Homo sapiens, UniProt P22455); conditions: for remaining binding at 10 µM: read-out: Percent control
T5 construct: purchased DiscoveRx KINOMEscan

[1] = target: T6, JAK3(JH1domain-catalytic) (Homo sapiens, UniProt P52333); conditions: for remaining binding at 10 µM: read-out: Percent control
T6 construct: JAK3(JH1domain-catalytic); purchased DiscoveRx KINOMEscan
T6 sequence (P52333 813-1124 limits assumed): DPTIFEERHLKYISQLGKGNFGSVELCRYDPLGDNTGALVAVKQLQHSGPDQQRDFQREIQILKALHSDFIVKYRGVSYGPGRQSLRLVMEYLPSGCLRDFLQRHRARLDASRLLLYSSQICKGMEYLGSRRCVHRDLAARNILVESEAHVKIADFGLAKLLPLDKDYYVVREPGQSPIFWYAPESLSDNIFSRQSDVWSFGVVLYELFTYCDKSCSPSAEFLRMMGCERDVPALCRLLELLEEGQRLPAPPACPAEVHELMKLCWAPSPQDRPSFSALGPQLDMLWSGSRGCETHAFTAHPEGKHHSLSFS

SRMS = target: T7, SRMS (Homo sapiens, UniProt Q9H3Y6); conditions: for remaining binding at 10 µM: read-out: Percent control
T7 construct: purchased DiscoveRx (KINOMEscan service)

TNK1 = target: T8, TNK1 (Homo sapiens, UniProt Q13470); conditions: for remaining binding at 10 µM: read-out: Percent control; for Percent control: 10 μM
T8 construct: purchased DiscoveRx (KINOMEscan service)
T8 sequence (Q13470 1-666): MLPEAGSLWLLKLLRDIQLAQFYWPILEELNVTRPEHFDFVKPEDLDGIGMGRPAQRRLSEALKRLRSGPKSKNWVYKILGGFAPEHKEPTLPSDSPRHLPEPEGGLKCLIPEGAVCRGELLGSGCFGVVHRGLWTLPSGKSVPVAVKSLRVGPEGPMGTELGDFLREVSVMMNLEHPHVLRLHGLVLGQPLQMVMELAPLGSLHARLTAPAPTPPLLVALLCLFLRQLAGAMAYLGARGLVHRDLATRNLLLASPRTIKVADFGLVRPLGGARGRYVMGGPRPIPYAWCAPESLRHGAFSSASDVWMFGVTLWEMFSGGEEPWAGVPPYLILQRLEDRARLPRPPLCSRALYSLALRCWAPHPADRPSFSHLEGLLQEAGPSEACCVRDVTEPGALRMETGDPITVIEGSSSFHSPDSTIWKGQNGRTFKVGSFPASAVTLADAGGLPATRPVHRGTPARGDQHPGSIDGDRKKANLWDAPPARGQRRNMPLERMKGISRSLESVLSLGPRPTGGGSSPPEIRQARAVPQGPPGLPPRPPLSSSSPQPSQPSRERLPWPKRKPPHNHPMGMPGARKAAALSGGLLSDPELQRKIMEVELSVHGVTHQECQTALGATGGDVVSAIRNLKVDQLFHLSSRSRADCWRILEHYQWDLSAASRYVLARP

TNK2 = target: T9, TNK2 (Homo sapiens, UniProt Q07912); conditions: for remaining binding at 10 µM: read-out: Percent control
T9 construct: purchased DiscoveRx (KINOMEscan service)
T9 sequence (Q07912 whole entry): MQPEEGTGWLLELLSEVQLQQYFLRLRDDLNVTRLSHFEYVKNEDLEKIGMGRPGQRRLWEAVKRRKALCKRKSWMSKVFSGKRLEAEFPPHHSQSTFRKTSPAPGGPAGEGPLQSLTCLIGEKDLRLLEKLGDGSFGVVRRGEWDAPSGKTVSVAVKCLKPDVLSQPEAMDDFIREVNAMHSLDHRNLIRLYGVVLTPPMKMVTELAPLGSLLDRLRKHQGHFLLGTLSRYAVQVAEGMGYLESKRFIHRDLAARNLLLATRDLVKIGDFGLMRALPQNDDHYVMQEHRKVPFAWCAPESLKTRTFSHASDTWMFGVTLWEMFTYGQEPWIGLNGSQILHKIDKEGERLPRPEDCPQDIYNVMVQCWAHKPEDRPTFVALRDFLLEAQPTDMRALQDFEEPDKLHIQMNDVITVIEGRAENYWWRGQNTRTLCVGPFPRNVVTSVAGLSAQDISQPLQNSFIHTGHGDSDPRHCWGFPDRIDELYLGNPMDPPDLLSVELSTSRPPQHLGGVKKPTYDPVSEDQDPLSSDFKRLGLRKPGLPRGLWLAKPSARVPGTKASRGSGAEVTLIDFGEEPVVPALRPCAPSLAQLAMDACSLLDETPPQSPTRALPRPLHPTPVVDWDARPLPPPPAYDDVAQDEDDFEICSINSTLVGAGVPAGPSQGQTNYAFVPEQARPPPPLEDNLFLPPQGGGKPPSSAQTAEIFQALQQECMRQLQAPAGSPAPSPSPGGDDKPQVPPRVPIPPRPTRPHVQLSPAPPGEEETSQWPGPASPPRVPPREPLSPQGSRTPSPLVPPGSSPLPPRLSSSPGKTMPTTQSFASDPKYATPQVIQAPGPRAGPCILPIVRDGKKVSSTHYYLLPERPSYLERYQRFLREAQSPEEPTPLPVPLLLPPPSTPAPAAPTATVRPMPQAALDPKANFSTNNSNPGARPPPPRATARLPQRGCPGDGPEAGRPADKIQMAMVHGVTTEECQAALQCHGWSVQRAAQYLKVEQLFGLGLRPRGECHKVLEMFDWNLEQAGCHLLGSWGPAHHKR

TRKB = target: T10, TRKB (Homo sapiens, UniProt Q16620); conditions: for remaining binding at 10 µM: read-out: Percent control
T10 construct: purchased DiscoveRx (KINOMEscan service)

TXK = target: T11, TXK (Homo sapiens, UniProt P42681); conditions: for remaining binding at 10 µM: read-out: Percent control; for Percent control: 10 μM
T11 construct: purchased DiscoveRx (KINOMEscan service)
T11 sequence (P42681 1-527): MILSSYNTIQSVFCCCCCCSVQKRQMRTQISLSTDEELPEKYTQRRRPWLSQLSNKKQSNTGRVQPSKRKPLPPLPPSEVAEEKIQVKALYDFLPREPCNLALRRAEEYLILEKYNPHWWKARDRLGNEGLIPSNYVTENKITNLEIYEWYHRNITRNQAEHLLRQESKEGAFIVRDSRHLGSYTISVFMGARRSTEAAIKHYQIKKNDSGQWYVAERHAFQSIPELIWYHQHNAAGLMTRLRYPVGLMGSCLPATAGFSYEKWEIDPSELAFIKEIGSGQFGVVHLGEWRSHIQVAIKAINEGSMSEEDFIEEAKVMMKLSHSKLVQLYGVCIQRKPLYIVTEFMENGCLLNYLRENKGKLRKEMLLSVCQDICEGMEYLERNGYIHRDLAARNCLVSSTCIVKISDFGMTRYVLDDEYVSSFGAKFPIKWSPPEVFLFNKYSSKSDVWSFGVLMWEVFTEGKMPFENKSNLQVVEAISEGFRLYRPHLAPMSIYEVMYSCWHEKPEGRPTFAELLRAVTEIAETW

[2] = JAK3(JH1domain-catalytic), 10 μM

T1 sequence (Q15375 28-998): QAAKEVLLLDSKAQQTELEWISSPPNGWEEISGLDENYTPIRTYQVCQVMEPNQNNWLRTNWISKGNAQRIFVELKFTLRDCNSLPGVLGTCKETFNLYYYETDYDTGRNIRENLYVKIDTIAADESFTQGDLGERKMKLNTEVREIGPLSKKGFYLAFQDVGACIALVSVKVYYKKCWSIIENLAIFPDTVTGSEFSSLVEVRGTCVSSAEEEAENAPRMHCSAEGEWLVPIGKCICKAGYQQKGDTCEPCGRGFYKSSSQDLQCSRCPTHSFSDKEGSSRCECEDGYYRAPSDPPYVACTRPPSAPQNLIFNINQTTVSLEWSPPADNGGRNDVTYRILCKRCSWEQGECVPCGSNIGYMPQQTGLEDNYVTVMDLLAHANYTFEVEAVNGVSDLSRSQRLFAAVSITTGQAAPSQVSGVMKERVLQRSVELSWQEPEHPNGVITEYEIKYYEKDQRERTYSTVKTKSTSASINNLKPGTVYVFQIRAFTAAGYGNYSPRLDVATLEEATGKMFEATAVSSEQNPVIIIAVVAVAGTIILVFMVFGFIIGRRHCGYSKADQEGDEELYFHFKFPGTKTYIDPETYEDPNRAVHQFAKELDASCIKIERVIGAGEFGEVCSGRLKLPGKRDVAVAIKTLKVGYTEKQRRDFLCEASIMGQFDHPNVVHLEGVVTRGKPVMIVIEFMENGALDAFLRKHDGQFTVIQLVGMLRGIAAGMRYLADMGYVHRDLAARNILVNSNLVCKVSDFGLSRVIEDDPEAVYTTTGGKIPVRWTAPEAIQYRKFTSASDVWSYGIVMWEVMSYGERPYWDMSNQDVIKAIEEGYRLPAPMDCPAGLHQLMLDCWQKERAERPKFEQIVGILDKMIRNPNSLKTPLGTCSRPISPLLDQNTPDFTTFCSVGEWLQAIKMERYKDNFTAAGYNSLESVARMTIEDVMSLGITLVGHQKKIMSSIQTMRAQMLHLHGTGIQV

Row | Compound | remaining binding at 10 µM (TNK1) | remaining binding at 10 µM (TNK2; TNK2, 10 μM) | remaining binding at 10 µM (TXK) | Percent control (EPHA7; EPHA7, 10 μM) | Percent control (EPHA8; EPHA8, 10 μM) | Percent control (ERBB4; ERBB4, 10 μM) | Percent control (FAK; FAK, 10 μM) | Percent control (FGFR4; FGFR4, 10 μM) | Percent control [1, 2] | Percent control (SRMS; SRMS, 10 μM) | Percent control (TNK1) | Percent control (TNK2; TNK2, 10 μM) | Percent control (TRKB; TRKB, 10 μM) | Percent control (TXK) | other results
1 | C#Cc1cccc(Nc2ncnc3cc(OCCOC)c(OCCOC)cc23)c1 [Erlotinib] | 5.9% | 100% | 27.5% | – | – | – | – | – | – | – | – | – | – | – | remaining binding at 10 µM (EPHA7): 12.3%; remaining binding at 10 µM (EPHA8): 8.6%; remaining binding at 10 µM (ERBB4): 2.2%; remaining binding at 10 µM (FAK): 100%; remaining binding at 10 µM (FGFR4): 100%; remaining binding at 10 µM [1]: 6.5%; remaining binding at 10 µM (SRMS): 100%; remaining binding at 10 µM (TRKB): 100%
2 | Cc1ccc(NC(=O)c2ccc(CN3CCN(C)CC3)cc2)cc1Nc1nccc(-c2cccnc2)[n+]1[Pt-2]1([Cl])[NH2+]C2CCCCC2[NH2+]1 (stereo not drawn) [1b, oxaliplatin-imatinib] | – | – | – | 100% | 68% | 93% | 90% | 94% | 55% | 98% | 90% | 100% | 100% | 87% | –
3 | Cc1ccc(NC(=O)c2ccc(CN3CCN(C)CC3)cc2)cc1Nc1nccc(-c2cccnc2)n1 [Imatinib, reference compound] | – | – | – | 100% | 12.3% | 100% | 100% | 100% | 100% | 100% | 100% | 100% | 100% | 100% | –
4 | COc1cc2c(Nc3ccc(Br)cc3F)ncnc2cc1OCC1CCN(C)CC1 [Vandetanib, reference compound] | 100% | 100% | 27% | – | – | – | – | – | – | – | – | – | – | – | remaining binding at 10 µM (EPHA7; EPHA7, 10 μM): 19.4%; remaining binding at 10 µM (EPHA8; EPHA8, 10 μM): 0.9%; remaining binding at 10 µM (ERBB4; ERBB4, 10 μM): 4.5%; remaining binding at 10 µM (FAK; FAK, 10 μM): 100%; remaining binding at 10 µM (FGFR4; FGFR4, 10 μM): 18.7%; remaining binding at 10 µM [1, 2]: 100%; remaining binding at 10 µM (SRMS; SRMS, 10 μM): 16%; remaining binding at 10 µM (TRKB; TRKB, 10 μM): 100%
5 | COc1cc2c(Nc3ccc(Br)cc3F)[n+]([Pt-2]3([Cl])[NH2+]C4CCCCC4[NH2+]3)cnc2cc1OCC1CCN(C)CC1 (stereo not drawn) [3b, oxaliplatin-vandetanib] | – | – | – | 79% | 6.8% | 56% | 86% | 97% | 100% | 95% | 90% | 100% | 72% | 56% | –
6 | C#Cc1cccc(Nc2c3cc(OCCOC)c(OCCOC)cc3nc[n+]2[Pt@SP2-2]([NH3+])([NH3+])[Cl])c1 [2a, cisplatin-erlotinib] | – | – | – | 67% | 56% | 47% | 94% | 99% | 28% | 94% | 85% | – | 95% | 76% | Percent control (TNK2): 100

Reference: paper PMC4858680, “A platinum-based hybrid drug design approach to circumvent acquired resistance to molecular targeted tyrosine kinase inhibitors” (Scientific Reports, 2016)
